Assay results published in patent US20070049564A1 (Wyeth, priority 2005, published 2007).
Converted amounts (≈) assume the structure as drawn. Read-outs that look alike come from different tables or passages of the source.

What was measured:
[1] = tested on: Staph. aureus Smith; assay: In vivo activity (oral, iv; ED50) against Staph. aureus Smith in mice
Procedure: Representative examples of compounds of Formula I were tested for the oral efficacy using S. aureus Smith in mice.

[2] = tested on: E. coli; assay: Range of MIC for E. coli strains; conditions: Escherichia coli
[3] = tested on: Staph.; assay: Range of MIC for Staph. strains, including MRSA; conditions: Staphylococcus aureus, MRSA
[4] = Staphylococcus aureus, in Mus musculus, po, read-out: ED50 Staph Smith SOD
[5] = iv, read-out: ED50 Staph Smith SIV
[6] = read-out: Range of MIC, E. coli (Water)
[7] = read-out: Range of MIC, Staph (Mouse Serum)
[8] = read-out: Range of MIC, Staph (Water)
[9] = 20 h, read-out: Range of MIC, E. coli (Mouse Serum)

Compound: CN(C)c1cc(NC(=O)CN(C(=O)OCOC(=O)c2ccc3ccccc3c2)C(C)(C)C)c(O)c2c1C[C@H]1C[C@H]3[C@H](N(C)C)C(O)=C(C(N)=O)C(=O)[C@@]3(O)C(O)=C1C2=O [Example 82, ({[(2-{[(5aR,6aS,7S,10aS)-9-(aminocarbonyl)-4,7-bis(dimethylamino)-1,8,10a,11-tetrahydroxy-10,12-dioxo-5,5a,6,6a,7,10,10a,12-octahydrotetracen-2-yl]amino}-2-oxoethyl)(tert-butyl)amino]carbonyl}oxy)methyl 2-naphthoate]
- ED50 [1, 4]: 22 mg/kg
- ED50 [1, 5]: 0.52 mg/kg
- MIC [2, 6]: > 64 µg/mL
- MIC [3, 7]: 4 to 6 µg/mL (≈ 4.91 to 7.37 µM)
- MIC [3, 8]: 4 to 8 µg/mL (≈ 4.91 to 9.83 µM)

Compound: CN(C)c1cc(NC(=O)CN(C(=O)OCOC(=O)c2c(F)cccc2F)C(C)(C)C)c(O)c2c1C[C@H]1C[C@H]3[C@H](N(C)C)C(O)=C(C(N)=O)C(=O)[C@@]3(O)C(O)=C1C2=O [Example 90, ({[(2-{[(5aR,6aS,7S,10aS)-9-(aminocarbonyl)-4,7-bis(dimethylamino)-1,8,10a,11-tetrahydroxy-10,12-dioxo-5,5a,6,6a,7,10,10a,12-octahydrotetracen-2-yl]amino}-2-oxoethyl)(tert-butyl)amino]carbonyl}oxy)methyl 2,6-difluorobenzoate]
- ED50 [1, 4]: 16 to 32 mg/kg
- ED50 [1, 5]: 0.5 to 1 mg/kg
- MIC [2, 9]: 2 to 4 µg/mL (≈ 2.5 to 5 µM)
- MIC [2, 6]: > 64 µg/mL
- MIC [3, 7]: 0.25 to 2 µg/mL (≈ 0.313 to 2.5 µM)
- MIC [3, 8]: 1 to 16 µg/mL (≈ 1.25 to 20 µM)

Compound: CN(C)c1cc(NC(=O)CN(C(=O)OCOC(=O)c2ccccc2F)C(C)(C)C)c(O)c2c1C[C@H]1C[C@H]3[C@H](N(C)C)C(O)=C(C(N)=O)C(=O)[C@@]3(O)C(O)=C1C2=O [Example 91, ({[(2-{[(5aR,6aS,7S,10aS)-9-(aminocarbonyl)-4,7-bis(dimethylamino)-1,8,10a,11-tetrahydroxy-10,12-dioxo-5,5a,6,6a,7,10,10a,12-octahydrotetracen-2-yl]amino}-2-oxoethyl)(tert-butyl)amino]carbonyl}oxy)methyl 2-fluorobenzoate]
- ED50 [1, 4]: 11.7 mg/kg
- ED50 [1, 5]: 1.21 mg/kg
- MIC [2, 9]: 0.5 to 2 µg/mL (≈ 0.64 to 2.56 µM)
- MIC [2, 6]: > 64 µg/mL
- MIC [3, 7]: 0.12 to 0.25 µg/mL (≈ 0.153 to 0.32 µM)
- MIC [3, 8]: 0.25 to 2 µg/mL (≈ 0.32 to 2.56 µM)

Compound: CN(C)c1cc(NC(=O)CN(C(=O)OCOC(=O)c2ccc(N3CCCC3)cc2)C(C)(C)C)c(O)c2c1C[C@H]1C[C@H]3[C@H](N(C)C)C(O)=C(C(N)=O)C(=O)[C@@]3(O)C(O)=C1C2=O [Example 93, ({[(2-{[(5aR,6aS,7S,10aS)-9-(aminocarbonyl)-4,7-bis(dimethylamino)-1,8,10a,11-tetrahydroxy-10,12-dioxo-5,5a,6,6a,7,10,10a,12-octahydrotetracen-2-yl]amino}-2-oxoethyl)(tert-butyl)amino]carbonyl}oxy)methyl 4-pyrrolidin-1-ylbenzoate]
- ED50 [1, 4]: > 32 mg/kg
- ED50 [1, 5]: 0.5 to 1 mg/kg
- MIC [2, 9]: 1 to 4 µg/mL (≈ 1.2 to 4.8 µM)
- MIC [3, 7]: 1 to 2 µg/mL (≈ 1.2 to 2.4 µM)
- MIC [3, 8]: 32 to 64 µg/mL (≈ 38.4 to 76.8 µM)

Compound: CCCCN(CC(=O)Nc1cc(N(C)C)c2c(c1O)C(=O)C1=C(O)[C@]3(O)C(=O)C(C(N)=O)=C(O)[C@@H](N(C)C)C3CC1C2)C(=O)OCc1oc(=O)oc1-c1ccccc1 (stereo partly drawn) [Example 112, (2-oxo-5-phenyl-1,3-dioxol-4-yl)methyl 2-{[(7S,10aS)-9-(aminocarbonyl)-4,7-bis(dimethylamino)-1,8,10a,11-tetrahydroxy-10,12-dioxo-5,5a,6,6a,7,10,10a,12-octahydrotetracen-2-yl]amino}-2-oxoethyl(butyl)carbamate]
- ED50 [1, 4]: 6.12 mg/kg
- ED50 [1, 5]: 0.48 mg/kg
- MIC [2, 9]: 1 to 4 µg/mL (≈ 1.24 to 4.98 µM)
- MIC [2, 6]: 2 to 8 µg/mL (≈ 2.49 to 9.95 µM)
- MIC [3, 7]: 2 to 8 µg/mL (≈ 2.49 to 9.95 µM)
- MIC [3, 8]: 4 to 16 µg/mL (≈ 4.98 to 19.9 µM)

Compound: CCCCN(CC(=O)Nc1cc(N(C)C)c2c(c1O)C(=O)C1=C(O)[C@]3(O)C(=O)C(C(N)=O)=C(O)[C@@H](N(C)C)C3CC1C2)C(=O)OCc1oc(=O)oc1-c1ccc(OC)cc1 (stereo partly drawn) [Example 113, [5-(4-methoxyphenyl)-2-oxo-1,3-dioxol-4-yl]methyl 2-{[(7S,10aS)-9-(aminocarbonyl)-4,7-bis(dimethylamino)-1,8,10a,11-tetrahydroxy-10,12-dioxo-5,5a,6,6a,7,10,10a,12-octahydrotetracen-2-yl]amino}-2-oxoethyl(butyl)carbamate]
- ED50 [1, 4]: 7.01 mg/kg
- ED50 [1, 5]: 0.4 mg/kg
- MIC [2, 9]: 1 to 4 µg/mL (≈ 1.2 to 4.8 µM)
- MIC [2, 6]: 2 to 16 µg/mL (≈ 2.4 to 19.2 µM)
- MIC [3, 7]: 4 to 16 µg/mL (≈ 4.8 to 19.2 µM)
- MIC [3, 8]: 4 to 32 µg/mL (≈ 4.8 to 38.4 µM)
